These results are taken from patent publication US12398132B2, “Derivatives of 4-(imidazo[1,2-a]pyridin-3-yl)-n-(pyridinyl)pyrimidin-2-amine as therapeutic agents” (AUCENTRA THERAPEUTICS PTY LTD, priority 2019, dated 2025).

The GI50 is the concentration that inhibits growth by half.

Experiment [1] addresses CDK4/D1 (Homo sapiens, UniProt P11802). Kind of experiment: ADP Glo kinase assay, CDK4/D1. Format: biochemical. The note with it: CDK4D1; for Ki: apparent Ki calculated from Km (ATP) and IC50, read-out: CDK inhibition Ki.
Method: (§1) Inhibition of FLT3(WT), FLT3(ITD) and FLT3(D835Y) and CDKs were determined using ADP Glo Kinase assays (Promega Corporation, Madison, WI, USA). […] Similarly, kinase reaction for CDK4/D1 and CDK6/D3 was performed with reaction buffer (40 nM Tris base pH 7.5, 20 mM MgCl2, 0.4 mM DTT), 0.1 mg/ml BSA and RB-CTF substrate (retinoblastoma protein1 C-terminal fraction). For CDK9/CyclinT1, the kinase reaction was performed with the standard assay buffer and Kinase Dilution Buffer and RBER-IRStide substrate. Half-maximal inhibition (IC50) values were calculated using a 4-parameter logistic non-linear regression model with Graphpad prism (Version 6.0). Apparent inhibition constants (Ki) values were calculated from Km (ATP) and IC50 values for the respective kinases.
The target of experiment [2] is CDK6/D3 (Homo sapiens, UniProt Q00534). In words: ADP Glo kinase assay, CDK6/D3. The class given is biochemical. As to conditions: CDK6D3; for Ki: apparent Ki calculated from Km (ATP) and IC50, read-out: CDK inhibition Ki; for remaining activity at 10 µM: compound at 10 μM, read-out: residual enzymatic activity (%) at 10 μM.
CDK6/D3, sequence (Q00534 whole entry, species assumed): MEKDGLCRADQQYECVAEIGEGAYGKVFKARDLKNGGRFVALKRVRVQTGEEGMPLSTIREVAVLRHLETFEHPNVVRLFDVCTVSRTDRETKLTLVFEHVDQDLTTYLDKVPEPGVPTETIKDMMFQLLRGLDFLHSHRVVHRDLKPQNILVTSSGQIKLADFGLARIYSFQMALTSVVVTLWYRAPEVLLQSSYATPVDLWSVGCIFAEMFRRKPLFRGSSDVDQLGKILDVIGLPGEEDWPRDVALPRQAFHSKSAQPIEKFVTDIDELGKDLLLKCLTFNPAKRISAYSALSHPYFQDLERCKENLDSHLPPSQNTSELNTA
CDK6/D3, sequence (P30281 whole entry partner, species assumed): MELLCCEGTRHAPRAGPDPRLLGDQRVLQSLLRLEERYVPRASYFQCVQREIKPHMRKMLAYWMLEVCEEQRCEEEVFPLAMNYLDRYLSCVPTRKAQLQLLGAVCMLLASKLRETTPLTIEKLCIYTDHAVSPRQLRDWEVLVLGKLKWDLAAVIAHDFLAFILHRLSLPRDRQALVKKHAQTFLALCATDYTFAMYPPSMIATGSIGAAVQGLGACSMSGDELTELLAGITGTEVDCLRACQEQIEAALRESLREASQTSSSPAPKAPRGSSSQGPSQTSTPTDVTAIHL
Method: as §1
In experiment [3] the target is CDK9/CyclinT1 (Homo sapiens, UniProt P50750). In words: ADP Glo kinase assay, CDK9/CyclinT1. Format: biochemical. As to conditions: CDK9T1; apparent Ki calculated from Km (ATP) and IC50; read-out: CDK inhibition Ki.
CDK9/CyclinT1, sequence (P50750 whole entry, species assumed): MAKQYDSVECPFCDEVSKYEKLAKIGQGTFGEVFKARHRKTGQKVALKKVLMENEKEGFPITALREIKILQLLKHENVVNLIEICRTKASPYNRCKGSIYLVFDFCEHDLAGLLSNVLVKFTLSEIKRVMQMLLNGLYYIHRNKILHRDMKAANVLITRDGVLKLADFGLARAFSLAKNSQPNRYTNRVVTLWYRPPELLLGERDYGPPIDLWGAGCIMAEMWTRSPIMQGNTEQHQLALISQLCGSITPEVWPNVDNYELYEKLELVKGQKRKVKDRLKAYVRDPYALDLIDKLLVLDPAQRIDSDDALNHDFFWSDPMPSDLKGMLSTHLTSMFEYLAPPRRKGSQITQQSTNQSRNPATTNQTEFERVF
CDK9/CyclinT1, sequence (O60563 whole entry partner, species assumed): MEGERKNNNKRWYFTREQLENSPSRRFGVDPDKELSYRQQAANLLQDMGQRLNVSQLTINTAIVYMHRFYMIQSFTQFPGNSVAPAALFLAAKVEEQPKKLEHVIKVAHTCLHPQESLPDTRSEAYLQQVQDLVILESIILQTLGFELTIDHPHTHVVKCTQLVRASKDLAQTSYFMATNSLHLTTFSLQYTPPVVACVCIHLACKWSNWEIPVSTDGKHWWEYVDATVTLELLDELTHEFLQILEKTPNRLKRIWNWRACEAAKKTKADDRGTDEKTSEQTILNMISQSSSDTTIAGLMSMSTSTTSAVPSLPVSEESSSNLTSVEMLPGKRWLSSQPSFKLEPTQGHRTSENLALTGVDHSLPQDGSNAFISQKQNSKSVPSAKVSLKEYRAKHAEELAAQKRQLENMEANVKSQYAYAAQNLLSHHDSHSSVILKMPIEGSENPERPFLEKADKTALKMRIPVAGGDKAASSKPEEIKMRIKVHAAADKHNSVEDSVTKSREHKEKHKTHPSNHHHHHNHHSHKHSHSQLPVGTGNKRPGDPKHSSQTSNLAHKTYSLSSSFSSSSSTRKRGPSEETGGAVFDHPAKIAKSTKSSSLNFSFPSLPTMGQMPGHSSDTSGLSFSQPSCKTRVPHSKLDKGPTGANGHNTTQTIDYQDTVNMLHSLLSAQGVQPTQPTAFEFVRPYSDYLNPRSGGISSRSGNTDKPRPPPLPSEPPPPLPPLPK
Experiment [4] relates to MV-4-11. Kind of experiment: Proliferation assay (resazurin/MTT), MV-4-11. The class given is cell-based. The note with it: Homo sapiens, MV4-11, read-out: 72 h Growth inhibition GI50, MV-4-11 cells. Background: Alamar Blue is a resazurin reagent that responds to reducing activity.
For experiment [5], the system named is U937. Kind of experiment: Proliferation assay (resazurin/MTT), U937. The class given is cell-based. The note with it: Homo sapiens, U-937, read-out: 72 h Growth inhibition GI50, U937 cells.
For experiment [6], the target named is CDK2E1 (Homo sapiens, UniProt P24941). The note with it: 1 µM.
Experiment [7] addresses T1, CDK7HMAT1 (Homo sapiens, UniProt P50613). As to conditions: 10 µM.
The target in experiment [8] is T2, CDK1B (Homo sapiens, UniProt P06493). Kind of experiment: biochemical.
T2 sequence (P06493 whole entry): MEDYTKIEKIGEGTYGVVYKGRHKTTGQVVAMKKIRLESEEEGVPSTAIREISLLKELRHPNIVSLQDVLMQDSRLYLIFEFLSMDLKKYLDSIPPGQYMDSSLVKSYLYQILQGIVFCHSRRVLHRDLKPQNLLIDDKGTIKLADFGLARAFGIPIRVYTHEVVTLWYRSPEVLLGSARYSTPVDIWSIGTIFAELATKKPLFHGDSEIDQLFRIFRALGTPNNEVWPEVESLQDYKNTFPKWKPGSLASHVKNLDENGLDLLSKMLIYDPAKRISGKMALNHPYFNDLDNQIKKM
T2 sequence (P14635 whole entry partner): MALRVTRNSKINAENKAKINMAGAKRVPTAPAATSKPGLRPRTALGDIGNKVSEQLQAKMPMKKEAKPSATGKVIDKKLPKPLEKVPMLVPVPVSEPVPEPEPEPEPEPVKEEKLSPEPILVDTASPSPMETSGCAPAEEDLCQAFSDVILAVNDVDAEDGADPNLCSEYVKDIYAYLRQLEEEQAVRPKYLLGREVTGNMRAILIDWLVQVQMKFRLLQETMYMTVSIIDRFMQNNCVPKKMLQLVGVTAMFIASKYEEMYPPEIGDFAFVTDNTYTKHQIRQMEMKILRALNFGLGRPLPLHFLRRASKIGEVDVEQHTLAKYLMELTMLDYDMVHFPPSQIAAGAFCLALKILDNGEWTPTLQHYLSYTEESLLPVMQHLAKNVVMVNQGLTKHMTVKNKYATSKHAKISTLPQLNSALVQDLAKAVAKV
Experiment [9] addresses T2, CDK1B.
Experiment [10] addresses T1, CDK7HMAT1. In words: biochemical.
[11] abbreviates: compound at 1 μM (values marked *), read-out: residual enzymatic activity (%) at 1 μM*.

Where two headings read alike, the source gives them in different places.

CDK4/D1, sequence (P11802 whole entry, species assumed): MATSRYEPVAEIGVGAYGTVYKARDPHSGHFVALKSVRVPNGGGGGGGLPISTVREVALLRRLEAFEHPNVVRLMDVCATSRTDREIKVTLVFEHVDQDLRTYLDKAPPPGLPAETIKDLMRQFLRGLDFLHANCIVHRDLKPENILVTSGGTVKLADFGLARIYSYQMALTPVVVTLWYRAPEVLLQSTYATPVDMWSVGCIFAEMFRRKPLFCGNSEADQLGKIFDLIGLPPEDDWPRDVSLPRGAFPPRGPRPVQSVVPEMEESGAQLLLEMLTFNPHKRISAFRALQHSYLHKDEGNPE
CDK4/D1, sequence (P24385 whole entry partner, species assumed): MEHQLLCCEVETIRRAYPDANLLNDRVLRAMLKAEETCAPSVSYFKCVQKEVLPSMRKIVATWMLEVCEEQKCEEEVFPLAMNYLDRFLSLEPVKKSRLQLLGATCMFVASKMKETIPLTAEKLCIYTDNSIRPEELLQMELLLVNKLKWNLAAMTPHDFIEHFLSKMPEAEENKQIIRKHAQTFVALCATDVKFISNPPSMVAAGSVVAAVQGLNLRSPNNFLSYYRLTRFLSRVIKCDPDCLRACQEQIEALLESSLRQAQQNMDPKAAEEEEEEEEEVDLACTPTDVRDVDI
T1 sequence (P50613 whole entry): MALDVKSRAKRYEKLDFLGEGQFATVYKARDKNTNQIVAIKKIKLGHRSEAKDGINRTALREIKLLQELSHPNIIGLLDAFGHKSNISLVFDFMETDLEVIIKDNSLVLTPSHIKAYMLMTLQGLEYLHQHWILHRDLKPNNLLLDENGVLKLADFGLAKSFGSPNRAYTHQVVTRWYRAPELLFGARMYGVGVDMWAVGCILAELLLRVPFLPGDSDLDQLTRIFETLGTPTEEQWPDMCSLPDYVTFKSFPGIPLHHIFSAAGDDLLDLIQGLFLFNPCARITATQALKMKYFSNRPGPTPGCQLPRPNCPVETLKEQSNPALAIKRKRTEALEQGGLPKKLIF
T1 sequence (P51946 whole entry partner): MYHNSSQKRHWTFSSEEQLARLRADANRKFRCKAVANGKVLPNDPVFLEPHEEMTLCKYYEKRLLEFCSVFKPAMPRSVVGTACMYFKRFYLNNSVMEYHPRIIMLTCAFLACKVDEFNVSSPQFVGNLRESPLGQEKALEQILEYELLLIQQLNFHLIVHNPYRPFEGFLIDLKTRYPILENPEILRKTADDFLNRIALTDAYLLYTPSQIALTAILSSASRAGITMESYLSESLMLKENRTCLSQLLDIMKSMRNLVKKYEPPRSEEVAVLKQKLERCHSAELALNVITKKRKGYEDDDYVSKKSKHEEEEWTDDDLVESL
T1 sequence (P51948 whole entry partner): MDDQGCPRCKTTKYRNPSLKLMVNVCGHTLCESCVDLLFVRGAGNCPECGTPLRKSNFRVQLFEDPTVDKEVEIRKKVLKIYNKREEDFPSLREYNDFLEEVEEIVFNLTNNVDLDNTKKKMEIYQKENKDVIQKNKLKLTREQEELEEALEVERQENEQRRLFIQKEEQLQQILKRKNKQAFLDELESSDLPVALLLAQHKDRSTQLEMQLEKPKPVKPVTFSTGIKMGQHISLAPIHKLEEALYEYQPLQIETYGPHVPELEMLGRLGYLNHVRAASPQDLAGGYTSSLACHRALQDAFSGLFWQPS

In the case of `CC(=O)N1CCN(c2ccc(Nc3nccc(-c4cnc5ccc(C)cn45)n3)nc2)CC1` [Cmpd 13, 1-(4-(6-((4-(6-Methylimidazo[1,2-a]pyridin-3-yl)pyrimidin-2-yl)amino)pyridin-3-yl)piperazin-1-yl)ethan-1-one], the Ki in experiment [1] was 419 nM; in experiment [2], 2400 nM; in experiment [3], 163 nM; in experiment [8], 2450 nM. For the same compound, the GI50 in [4] is 6 nM; in [5], 1470 nM. Moreover, the activity in experiment [6] is 52%; in experiment [7], 77%.

Turning to `CC(=O)N1CCN(c2ccc(Nc3nccc(-c4cnc5ccc(-c6cn[nH]c6)cn45)n3)nc2)CC1` [Cmpd 24, 1-(4-(6-((4-(6-(1H-Pyrazol-4-yl)imidazo[1,2-a]pyridin-3-yl)pyrimidin-2-yl)amino)pyridin-3-yl)piperazin-1-yl)ethan-1-one], the remaining activity at 10 µM in experiment [1] (compound at 10 μM, read-out: residual enzymatic activity (%) at 10 μM) is 66%; in [2], 61%. For the same compound, the Ki in experiment [3] is 125 nM; in experiment [10] it was 1190 nM. For the same compound, the GI50 in experiment [4] was found to be 25 nM; in [5], 466 nM. For the same compound, the activity in experiment [9] (10 µM) worked out at 35%; in [6], 24%.

With `CC(=O)N1CCN(c2ccc(Nc3nccc(-c4cnc5ccc(-c6ccoc6)cn45)n3)nc2)CC1` [Cmpd 25, 1-(4-(6-((4-(6-(Furan-3-yl)imidazo[1,2-a]pyridin-3-yl)pyrimidin-2-yl)amino)pyridin-3-yl)piperazin-1-yl)ethan-1-one], the remaining activity at 1 µM in experiment [1] (setting [11]) turned out to be 75%; in [2] (setting [11]) it was 52%. The results for the Ki in experiment [3] and in experiment [10] were 71 nM and 186 nM, respectively. Besides, the GI50 is 5 nM in experiment [4] and 765 nM in experiment [5]. Besides, the activity in [9] (1 µM) was 95%; in [6] it was 40%.

`c1ccn2c(-c3ccnc(Nc4ccc(N5CCNCC5)cn4)n3)cnc2c1` [Cmpd 1, 4-(Imidazo[1,2-a]pyridin-3-yl)-N-(5-(piperazin-1-yl)pyridin-2-yl)pyrimidin-2-amine]: the Ki in experiment [1] was 116 nM; in experiment [2], 900 nM; in [3] it was 37 nM; in experiment [8], 1340 nM; in [10] it was 1190 nM. Moreover, the GI50 in experiment [4] turned out to be 9 nM; in [5], 497 nM. This compound also showed an activity in [6] of 69%.

For the compound `CC(=O)N1CCN(c2ccc(Nc3nccc(-c4cnc5ccc(-c6cccs6)cn45)n3)nc2)CC1` [Cmpd 17, 1-(4-(6-((4-(6-(Thiophen-2-yl)imidazo[1,2-a]pyridin-3-yl)pyrimidin-2-yl)amino)pyridin-3-yl)piperazin-1-yl)ethan-1-one], the Ki in [1] was 340 nM; in experiment [3] it was 427 nM; in [8], over 500 nM; in experiment [10], 148 nM. Also, the remaining activity at 10 µM in experiment [2] was 76%. Further, the concentration for 50% growth inhibition (GI50) in experiment [4] amounted to 2 nM; in experiment [5], 690 nM. The activity in [6] is 52%.
